Article PMC3692405, “Disease-associated mutations in CNGB3 promote cytotoxicity in photoreceptor-derived cells” (Molecular Vision, 2013)
Substitutions are numbered along the chain they refer to. Where two headings read alike, the source gives them in different places.

Key:
Assay type in all cases: biochemical
Conditions in all cases: in the presence of 0.1 µM CPT-cGMP
[1] = target: T1, CNGA3 plus CNGB3 T383fsX channels (Homo sapiens, UniProt Q16281); test: Inside-out patch-clamp recording of channels expressed in Xenopus oocytes (CNGB3 T383fsX)
T1 construct: expressed in transfected cells; host or cells: Xenopus laevis oocytes injected with cRNA transcribed from pGEMHE constructs
T1 sequence (Q16281 1-694): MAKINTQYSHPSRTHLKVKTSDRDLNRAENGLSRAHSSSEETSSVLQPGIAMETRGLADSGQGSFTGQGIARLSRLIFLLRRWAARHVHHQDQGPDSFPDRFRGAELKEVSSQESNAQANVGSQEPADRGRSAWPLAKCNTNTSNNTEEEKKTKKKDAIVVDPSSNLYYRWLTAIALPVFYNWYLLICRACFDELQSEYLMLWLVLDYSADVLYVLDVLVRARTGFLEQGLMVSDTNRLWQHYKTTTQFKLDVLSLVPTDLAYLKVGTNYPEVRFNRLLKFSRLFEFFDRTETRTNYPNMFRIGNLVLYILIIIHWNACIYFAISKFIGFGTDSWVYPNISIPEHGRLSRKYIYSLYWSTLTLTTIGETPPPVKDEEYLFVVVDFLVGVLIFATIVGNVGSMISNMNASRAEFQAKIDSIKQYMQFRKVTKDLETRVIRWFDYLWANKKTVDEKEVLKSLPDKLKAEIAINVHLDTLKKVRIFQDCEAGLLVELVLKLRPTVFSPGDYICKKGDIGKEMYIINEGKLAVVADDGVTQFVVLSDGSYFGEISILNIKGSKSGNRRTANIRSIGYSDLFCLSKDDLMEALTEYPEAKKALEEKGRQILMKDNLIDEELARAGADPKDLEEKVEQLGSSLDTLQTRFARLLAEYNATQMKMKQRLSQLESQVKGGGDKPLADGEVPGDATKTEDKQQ
Protocol: (§1) For heterologous expression in Xenopus laevis oocytes, identical amounts of cDNA were linearized using SphI or NheI, and capped cRNA was transcribed in vitro using the T-7 RNA polymerase mMESSAGE mMACHINE® kit (Ambion, Austin, TX). cRNA concentrations and relative amounts were determined by denaturing gel electrophoresis and KODAK 1D image analysis software (Rochester, NY), as well as by spectrophotometry. […] Oocytes were incubated in ND96 (96 mM NaCl, 2 mM KCl, 1.8 mM CaCl2, 1 mM MgCl2, and 5 mM HEPES, pH 7.6, supplemented with 10 μg/ml gentamycin).
(§2) Two to seven days after microinjection of cRNA, patch-clamp experiments were performed using the inside-out configuration with an Axopatch 200B amplifier (Axon Instruments, Foster City, CA). Recordings were made at 20–23 °C. Data were acquired using Pulse software (HEKA Elektronik, Lambrecht, Germany). Current traces were elicited by voltage steps from a holding potential of 0 mV to +80 mV, then to −80 mV and back to 0 mV. Initial pipette resistances were 0.4–0.8 megaohms. Intracellular and extracellular solutions contained 130 mM NaCl, 0.2 mM EDTA, and 3 mM HEPES (pH 7.2). Intracellular solutions were exchanged using an RSC-160 rapid solution changer (Molecular Kinetics, Indianapolis, IN). Currents in the absence of cyclic nucleotides were subtracted. For channel activation by CPT-cGMP or CPT-cAMP, dose–response data were fitted with the Hill equation, I/Imax=([cNMP]^h/(K1/2^h + [cNMP]^h)), where I is the current amplitude at +80 mV, Imax is the maximum current elicited by saturating concentration of ligand, [cNMP] is the ligand concentration, K1/2 is the apparent ligand affinity, and h is the Hill slope. We measured sensitivity to block by L-cis-diltiazem (RBI, Natick, MA) applied to the intracellular face of the patch in the presence of 0.1 μM CPT-cGMP. Data were fit with a modified Hill equation in the form I blocker/I=(K1/2^h/(K1/2^h + [blocker]^h)). Data were analyzed using Igor (Wavemetrics, Lake Oswego, OR), SigmaPlot, and SigmaStat (Systat Software Inc., San Jose, CA). All values are reported as the mean±standard error of the mean of n experiments unless otherwise indicated. Statistical significance was determined using a Student t test or Mann–Whitney rank sum test, and a p value of <0.05 was considered significant.

[2] = target: T2, WT human CNGA3 plus WT CNGB3 heteromeric channels (Homo sapiens, UniProt Q16281+Q9NQW8); test: Inside-out patch-clamp recording of channels expressed in Xenopus oocytes (WT heteromeric)
T2 construct: expressed in transfected cells; host or cells: Xenopus laevis oocytes injected with cRNA transcribed from pGEMHE constructs
T2 sequence (Q16281 1-694): T1 sequence (Q16281 1-694)
T2 sequence (Q9NQW8 1-809): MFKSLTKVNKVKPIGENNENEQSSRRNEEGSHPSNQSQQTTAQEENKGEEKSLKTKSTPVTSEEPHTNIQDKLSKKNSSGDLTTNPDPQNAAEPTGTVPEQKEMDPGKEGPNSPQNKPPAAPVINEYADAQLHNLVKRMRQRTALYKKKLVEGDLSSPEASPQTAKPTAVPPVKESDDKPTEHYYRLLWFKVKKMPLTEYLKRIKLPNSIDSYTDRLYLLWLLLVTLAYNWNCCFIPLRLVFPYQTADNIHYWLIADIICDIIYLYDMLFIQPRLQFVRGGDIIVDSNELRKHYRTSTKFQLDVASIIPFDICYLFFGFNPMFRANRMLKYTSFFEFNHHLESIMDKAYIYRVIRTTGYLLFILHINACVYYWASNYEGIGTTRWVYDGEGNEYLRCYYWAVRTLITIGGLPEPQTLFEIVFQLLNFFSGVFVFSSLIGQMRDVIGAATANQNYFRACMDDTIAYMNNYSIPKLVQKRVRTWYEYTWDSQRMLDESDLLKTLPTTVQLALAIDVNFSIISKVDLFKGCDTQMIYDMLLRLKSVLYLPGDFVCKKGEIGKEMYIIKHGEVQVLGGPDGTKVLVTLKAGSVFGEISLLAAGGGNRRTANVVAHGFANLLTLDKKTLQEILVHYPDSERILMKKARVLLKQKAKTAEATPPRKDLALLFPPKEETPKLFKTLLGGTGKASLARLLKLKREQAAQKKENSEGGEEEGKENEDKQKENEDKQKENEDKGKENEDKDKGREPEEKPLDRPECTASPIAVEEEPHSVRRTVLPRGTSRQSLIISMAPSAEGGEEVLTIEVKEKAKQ
Protocol: as §1, §2

[3] = target: T3, CNGA3 plus CNGB3-F525N channels (Homo sapiens, UniProt Q16281+Q9NQW8, F525N); test: Inside-out patch-clamp recording of channels expressed in Xenopus oocytes (CNGB3 F525N)
T3 construct: expressed in transfected cells; host or cells: Xenopus laevis oocytes injected with cRNA transcribed from pGEMHE constructs
T3 sequence (Q16281 1-694): T1 sequence (Q16281 1-694)
T3 sequence (Q9NQW8 1-809 F525N): T2 sequence (Q9NQW8 1-809) with F525N
Protocol: as §1, §2

[4] = Figure 6B, read-out: K1/2,L-cis-dilt., dose-response fit of Figure 6B
[5] = intracellular face, mean±SEM, n=5, read-out: apparent affinity for L-cis-diltiazem K1/2, L-cis-dilt. (channel block)

In the case of `COc1ccc([C@@H]2Sc3ccccc3N(CCN(C)C)C(=O)[C@@H]2OC(C)=O)cc1` [L-cis-diltiazem], the “Hill slope h, block by L-cis-diltiazem, Figure 6B” value (from here on “Hill slope h, block”) ([1]; Figure 6B) is reported as 0.3, the IC50 [1, 4] is reported as 135 µM and the IC50 ([1]; intracellular face, mean±SEM, n=4, read-out: apparent affinity for L-cis-diltiazem K1/2, L-cis-dilt. (channel block)) is reported as 77.9 ± 23.1 µM. The “Hill slope h, block” value ([2]; Figure 6B) was 0.5, the IC50 [2, 4] was 4.1 µM and the IC50 [2, 5] was 4.06 ± 1 µM. For the same molecule, the “Hill slope h, block” value ([3]; Figure 6B) was 0.7, the IC50 [3, 4] was 4.2 µM and the IC50 [3, 5] was 3.03 ± 0.75 µM.
